Experimental data taken from article PMC6133997, “Glutamic acid is a carrier for hydrazine during the biosyntheses of fosfazinomycin and kinamycin” (Nature Communications, 2018).

Legend:
KinL = target: T1, KinL (Streptomyces murayamaensis, UniProt A0A385LSP3); assay: LC-HRMS of culture supernatant of E. coli expressing KinL; format: cell-based; conditions: 1 mM acetylhydrazine, 1 mM glutamic acid, 15 °C overnight; empty-vector control
T1 construct: pET28a in live E. coli BL21(DE3), not purified
T1 sequence (A0A385LSP3 1-500): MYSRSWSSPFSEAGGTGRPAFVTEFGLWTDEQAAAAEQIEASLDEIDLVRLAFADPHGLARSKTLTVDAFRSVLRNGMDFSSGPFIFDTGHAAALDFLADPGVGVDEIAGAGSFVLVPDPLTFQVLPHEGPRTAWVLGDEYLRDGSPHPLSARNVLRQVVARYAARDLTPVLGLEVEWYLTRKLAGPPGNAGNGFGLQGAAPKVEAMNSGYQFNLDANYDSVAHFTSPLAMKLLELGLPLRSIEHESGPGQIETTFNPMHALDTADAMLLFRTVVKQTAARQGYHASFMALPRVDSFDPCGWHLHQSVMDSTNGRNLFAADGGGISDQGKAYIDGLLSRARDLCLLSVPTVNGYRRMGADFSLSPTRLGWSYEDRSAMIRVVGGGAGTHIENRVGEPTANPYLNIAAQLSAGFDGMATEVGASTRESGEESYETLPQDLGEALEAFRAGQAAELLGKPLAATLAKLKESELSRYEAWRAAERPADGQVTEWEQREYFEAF

FzmA = conditions: 21 µM enzyme, 5 mM substrate, 5 mM arginine, 6 mM MgCl2, 6 mM ATP, 50 mM NaH2PO4 pH 7.7, 21 h; hydrolysis to glutamic acid
FzmA, sequence (U5YQM4 entry or part of it): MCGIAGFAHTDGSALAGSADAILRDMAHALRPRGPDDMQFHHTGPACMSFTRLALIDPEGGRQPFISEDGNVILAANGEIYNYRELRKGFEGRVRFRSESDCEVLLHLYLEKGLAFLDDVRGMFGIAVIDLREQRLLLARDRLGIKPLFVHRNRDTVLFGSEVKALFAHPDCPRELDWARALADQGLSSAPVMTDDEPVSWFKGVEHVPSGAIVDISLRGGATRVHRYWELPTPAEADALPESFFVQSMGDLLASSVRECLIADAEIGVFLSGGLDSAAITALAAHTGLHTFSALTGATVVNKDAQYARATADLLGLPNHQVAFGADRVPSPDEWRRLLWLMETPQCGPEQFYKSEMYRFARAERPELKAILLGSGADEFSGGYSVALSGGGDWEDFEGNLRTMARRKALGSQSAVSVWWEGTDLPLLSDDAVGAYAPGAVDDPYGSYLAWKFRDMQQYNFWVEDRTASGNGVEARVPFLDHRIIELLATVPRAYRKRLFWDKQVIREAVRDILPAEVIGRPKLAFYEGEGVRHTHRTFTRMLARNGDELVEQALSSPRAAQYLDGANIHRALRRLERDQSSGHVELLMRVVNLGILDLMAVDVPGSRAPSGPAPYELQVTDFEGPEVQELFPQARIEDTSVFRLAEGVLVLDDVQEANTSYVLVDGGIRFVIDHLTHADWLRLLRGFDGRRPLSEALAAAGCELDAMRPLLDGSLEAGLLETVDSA

Row | SMILES | LC-HRMS of culture supernatant of E. coli expressing KinL (KinL) | LC-MS after Fmoc-Cl derivatization (FzmA)
1 | CC(=O)NN [acetylhydrazine] | observed in culture supernatants only when KinL was expressed and acetylhydrazine was present | –
2 | NNC(=O)CC[C@H](N)C(=O)O [compound 6, glutamylhydrazine] | – | FzmA clearly has the ability to liberate hydrazine from glutamylhydrazine
